Assay results as given in paper PMC6100415, “Hepatic Metabolism of Sakuranetin and Its Modulating Effects on Cytochrome P450s and UDP-Glucuronosyltransferases” (Molecules : A Journal of Synthetic Chemistry and Natural …, 2018).

Key:
[1] = NADPH-dependent phase I metabolic stability in mouse liver microsomes; type: in vitro ADME
Experimental: (§1) Metabolic stability was measured by monitoring the amount of parent compound that remained in an incubation mixture at designated incubation time points. For the phase I metabolism study, SKN (100 μM) was incubated with liver microsomes (1 mg/mL, rat, mouse, and dog; and 0.5 mg/mL, human), and an NADPH-generation cocktail consisting of nicotinamide adenine dinucleotide phosphate (NADP^+, 1 mM), glucose-6-phosphate (5 mM), glucose-6-phosphate dehydrogenase (1 unit/mL), and MgCl2 (10 mM) in potassium phosphate buffer (0.1 M, pH 7.4) in a total volume of 1 mL. To study phase II glucuronide conjugative metabolism, uridine 5′-diphosphoglucuronic acid (UDPGA) (2 mM) was added as a cofactor. The mixture was incubated in a shaking water bath, and the enzyme reaction was initiated by the addition of NADP^+, UDPGA, or both. Aliquots (100 μL) were removed at 0, 5, 15, 30, 45, and 60 min, and the reaction was terminated by adding two volumes of ice-cold methanol. […] The half-life of SKN was obtained by plotting the remaining amount of SKN against time using Prism 3.0 software (GraphPad, La Jolla, CA, USA). Hepatic intrinsic clearance (CLint, hepatic) was calculated using the following formula [20]:CLint, hepatic = (0.693/t1/2) × (g liver weight/kg body weight) × (mL incubation/mg of microsomal protein) × (mg microsomal protein concentration/g of liver)
(§2) The DAD was set at 280 nm.

[2] = NADPH-dependent phase I metabolic stability in rat liver microsomes; type: in vitro ADME
Experimental: as §1, §2

[3] = NADPH-dependent phase I metabolic stability in dog liver microsomes; type: in vitro ADME
Experimental: as §1, §2

[4] = target: T1, estrogen receptor (ER) (Homo sapiens, UniProt P03372); experiment: Estrogen receptor agonist-like activity in ER-positive human breast cancer cells; type: cell-based; conditions: preliminary data, not shown
T1 construct: endogenous in cells
T1 sequence (P03372 1-595): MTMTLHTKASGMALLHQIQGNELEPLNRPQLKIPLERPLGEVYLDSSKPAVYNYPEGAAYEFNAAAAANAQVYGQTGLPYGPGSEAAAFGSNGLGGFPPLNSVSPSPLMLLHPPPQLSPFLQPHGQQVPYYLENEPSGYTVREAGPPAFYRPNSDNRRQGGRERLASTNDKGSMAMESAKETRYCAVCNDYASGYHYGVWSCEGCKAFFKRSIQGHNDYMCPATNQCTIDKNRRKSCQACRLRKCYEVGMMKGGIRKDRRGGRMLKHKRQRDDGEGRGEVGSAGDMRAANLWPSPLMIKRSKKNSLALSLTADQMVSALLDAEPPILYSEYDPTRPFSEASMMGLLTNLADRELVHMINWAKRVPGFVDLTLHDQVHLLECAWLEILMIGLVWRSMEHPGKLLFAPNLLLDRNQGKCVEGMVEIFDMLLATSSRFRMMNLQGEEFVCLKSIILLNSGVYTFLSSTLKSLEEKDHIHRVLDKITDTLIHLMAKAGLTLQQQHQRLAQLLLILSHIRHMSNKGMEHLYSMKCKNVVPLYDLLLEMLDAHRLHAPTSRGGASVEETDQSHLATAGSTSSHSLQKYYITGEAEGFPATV

[5] = system: CYP isozymes (all isozyme-specific reactions); experiment: CYP inhibition in human liver microsomes, all isozyme-specific reactions; type: in vitro ADME; conditions: pH 7.4, SKN 10 μM, read-out: inhibitory effect on the formation of any CYP isozyme-specific metabolites
Excerpt: as §2

[6] = target: T2, CYP2C9 (Homo sapiens, UniProt P11712); experiment: CYP inhibition in human liver microsomes, diclofenac 4′-hydroxylation (DCHY); conditions: CYP2C9, DCHY, SKN 10 μM, 15 min pre-incubation
Experimental: (§3) The formation of a metabolite from a CYP isozyme-specific phenotyping reaction (Table 4) was monitored. Each substrate (200 μM), along with SKN (10 μM), was incubated with human liver microsomes (0.5 mg/mL) and an NADPH-generating system in 0.1 M potassium phosphate buffer (pH 7.4) at 37 °C for 60 min in a total volume of 200 μL in a shaking water bath. The metabolic reaction was initiated by adding NADP^+ (1 mM) and stopped by adding 10 μL of trichloroacetic acid. In some experiments, the microsomes were pre-incubated with SKN for 15 min prior to the addition of the cofactor, in order to determine the time-dependent inhibitory effect. […] In contrast, co-incubation refers to experiments in which microsomes and cofactors were incubated in the presence of SKN. After centrifugation of incubation samples at 12,000× g for 15 min at 4 °C, the supernatant (20 μL) was injected into an HPLC-DAD system to analyze the metabolites formation (Supplementary Materials).
(§4) The DAD was set at 248 nm for phenacetin O-deethylation (PCOD), 298 nm for bupropion hydroxylation (BPHY), 276 nm for diclofenac 4′-hydroxylation (DCHY), 230 nm for tolbutamide 6-hydroxylation (TOLHY), 280 nm for dextromethorphan O-demethylation (DEXOD), and 250 nm for testosterone 6β-hydroxylation (TSTHY) and testosterone β-D-glucuronidation (TSTG).

[7] = target: T2, CYP2C9; experiment: CYP inhibition in human liver microsomes, tolbutamide 6-hydroxylation (TOLHY); conditions: CYP2C9, TOLHY, SKN 10 μM
Experimental: as §3, §4

[8] = system: various cancer cell lines; conditions: cited from earlier work

T2 sequence (P11712 whole entry): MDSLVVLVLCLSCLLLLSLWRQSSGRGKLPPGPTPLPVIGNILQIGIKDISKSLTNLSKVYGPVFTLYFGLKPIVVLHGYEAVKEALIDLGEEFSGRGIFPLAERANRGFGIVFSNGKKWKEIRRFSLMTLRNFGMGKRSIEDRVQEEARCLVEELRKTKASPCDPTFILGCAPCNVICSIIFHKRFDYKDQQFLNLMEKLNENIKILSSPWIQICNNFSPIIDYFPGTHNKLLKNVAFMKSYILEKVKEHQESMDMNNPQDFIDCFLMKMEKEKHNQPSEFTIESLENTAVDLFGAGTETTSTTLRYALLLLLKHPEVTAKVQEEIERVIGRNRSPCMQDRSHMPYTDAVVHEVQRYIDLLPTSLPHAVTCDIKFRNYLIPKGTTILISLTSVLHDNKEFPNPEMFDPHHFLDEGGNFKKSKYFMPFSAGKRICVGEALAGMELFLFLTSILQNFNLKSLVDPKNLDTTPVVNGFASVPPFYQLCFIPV

SMILES	Amount Remaining at 30 min (%) ([1]; mouse liver microsomes 1 mg/mL, SKN 100 μM)	amount of SKN remaining after 60 min of incubation ([1]; mouse liver microsomes, 60 min) [%]	half-life at 100 µM ([1]; pH 7.4, mouse liver microsomes) [min]	CLint scaled at 100 µM ([1]; pH 7.4, mouse liver microsomes, read-out: CLint, hepatic) [mL/min/kg]	half-life at 100 µM ([2]; pH 7.4, rat liver microsomes) [min]	CLint scaled at 100 µM ([2]; pH 7.4, rat liver microsomes, read-out: CLint, hepatic) [mL/min/kg]	Amount Remaining at 30 min (%) ([2]; rat liver microsomes 1 mg/mL, SKN 100 μM)	Amount Remaining at 30 min (%) ([3]; dog liver microsomes 1 mg/mL, SKN 100 μM)	amount of SKN remaining after 60 min of incubation ([3]; dog liver microsomes, 60 min) [%]	half-life at 100 µM ([3]; pH 7.4, dog liver microsomes) [min]	CLint scaled at 100 µM ([3]; pH 7.4, dog liver microsomes, read-out: CLint, hepatic) [mL/min/kg]	estrogen receptor (ER) agonist-like activity [4]	inhibition at 60 min, 10 µM [5] [%]	% Inhibition in Pre-Incubation [6] [%]	% Inhibition in Pre-Incubation ([7]; 15 min pre-incubation) [%]	% Inhibition in Co-Incubation ([7]; human liver microsomes) [%]	anti-proliferative activity compared to naringenin [8]
COc1cc(O)c2c(c1)OC(c1ccc(O)cc1)CC2=O (racemic) [SKN, (+/−) 7-O-methylnaringenin]	4.90	4.9	5.4	565	10.1	124	29.0	18.5	18.5	2.7	641	agonist-like activity	≤ 20	8.7 ± 1.4	10.1 ± 1.2	2.0 ± 0.6	–
O=C1C[C@@H](c2ccc(O)c(O)c2)Oc2cc(O)cc(O)c21 [Eriodictyol, 3′-hydroxynaringenin]	–	–	–	–	–	–	–	–	–	–	–	–	–	–	–	–	two-fold higher
